# Patent US20180050078A1, “COMPOSITION FOR IMPROVING OR PREVENTING NONALCOHOLIC FATTY LIVER” (KOHJIN LIFE SCIENCES CO., LTD., priority 2015, published 2018)
# Test system: Mice (C57/B6J) fed with high-fat food
# Source text: Mice (C57/B6J, 8 weeks old male) were divided into 4 groups (5 animals each), and the first group (DB) was freely fed with ordinary food (CertifiedDiet “MF” manufactured by Oriental Yeast Co., ltd.). The second group (HFD) was freely fed with high-fat food (High Fat Diet 32, manufactured by CLEA Japan, Inc.), […].
# When the mouse was 20 weeks old, the body weight, the liver weight, the serum aspartate aminotransferase (AST), the alanine aminotransferase (ALT), the serum triglyceride (TG), the free fatty acid value (FFA) and the total cholesterol value (T-cho) were measured.
# [1] = HFD6 (6 mg/kg/day) and HFD60 (60 mg/kg/day) groups in comparison to HFD group, 20 weeks old
# [2] = high-fat food mice, glutathione in water 6 or 60 mg/kg/day, 20 weeks old
smiles,measurement,setting,value
N[C@@H](CCC(=O)N[C@@H](CS)C(=O)NCC(=O)O)C(=O)O [glutathione],FFA (free fatty acid value),[1],significant decrease
same,T-cho (total cholesterol value),[1],significant decrease
same,TG (triglyceride value),[1],significant decrease
same,"serum AST, ALT, TG, FFA and T-cho: dose dependence",HFD6 group compared with HFD60 group,decrease dependently on the concentration
same,consumption amounts of feed and water,"all of the groups (DB, HFD, HFD6, HFD60)",no significant difference
same,deposition of fat on the liver by high-fat food,"high-fat food mice, glutathione 6 or 60 mg/kg/day",suppressed
same,body weight,[2],decrease of the body weight was recognized
same,liver weight,[2],decreased dependently on the concentration
same,ratio of liver weight/body weight,[2],decrease of the body weight ratio was also recognized
